Measurements: patent publication US20140363378A1, “SELF-ASSEMBLING MOLECULES THAT ACCUMULATE IN ACIDIC TUMOR MICROENVIRONMENTS” (The Ohio State University, priority 2012, published 2014)
Peptide text beside a SMILES is read from it. * marks the point of attachment. Palmitoyl = CCCCCCCCCCCCCCCC(=O)*; DO3A:Gd = Gd-chelated DO3A

Tests used:
Type in all cases: physicochemical
[1] = Circular dichroism (CD) spectroscopy of pH-triggered self-assembly transition; settings: for each concentration (10 μM, 500 μM)
Protocol: The target PA concentration (10 μM) was below the detectable limit of conventional techniques to determine the morphology such as cryoTEM and small-angle X-ray scattering. Consequently, circular dichroism (CD) spectroscopy was initially used to characterize the morphology of these PAs at various pH values. PA 1 was the first molecule synthesized that underwent a self-assembly transition in the desired pH range of 6.6-7.4 at 10 μM PA concentration, in 150 mM NaCl and 2.2 mM CaCl2 (FIG. 2A) (Goldberger, J. E., et al. Angew. Chem. Int. Ed. 2011 50:6292-95). […] The transition pH from random coil to β-sheet occurred at a pH of 6.6. The transition pH was defined as the value at which the ellipticity at 205 nm rises to zero, followed by the appearance of a minimum at 218-220 nm.
Measurements were done on a Jasco-815 Circular Dichroism spectrometer using 1 cm path length quartz cuvettes. […] Double deionized Milli-Q water was used for preparing all solutions. The solutions were then heated at 80° C. for 30 minutes in a water bath and gradually cooled to room temperature. […]

[2] = pH titration of peptide amphiphiles; settings: aqueous solution of 150 mM NaCl and 2.2 mM CaCl2, glutamic acid residues, 10 μM PA
Protocol: The titration measurements were conducted on 10 μM peptide amphiphile solutions prepared in 150 mM NaCl and 2.2 mM CaCl2 using milli-Q water. The solution was heated at 80° C. for 30 minutes followed by slow cooling at room temperature. The pH of the solution was then adjusted to 4 using HCl. Finally, an Accumet XL15 pH meter (Fisher Scientific) coupled with an Orion Ross Ultra semi-micro electrode (8103BNUWP, Thermo Scientific) was used to track changes in pH of the solution as NaOH solution was added in small increments. pKa values were obtained from the second inflection points of the first derivative plots of the titration data. The first transition corresponds to neutralization of excess HCl. The calculated pKas reflect the average pKa for all four glutamic acids.

[3] = Transmission electron microscopy (TEM) of self-assembled morphology; settings: 0.5 mM PA
Protocol: At a pH of 7.75, HCl was added until the pH was 6.1, and the resulting β-sheet CD spectrum was collected within three minutes. An appropriate amount of NaOH was then added to reverse the pH back to 7.70, and random coil behavior was observed again. […] Conventional transmission electron microscopy (TEM) imaging was used to determine the morphology of 10 μM of PA 1, at pH values of 6 and 8 (FIG. 6A, 6B). The TEM grids were prepared within three minutes of pH adjustment. […] This nanofiber diameter corresponds roughly to twice the molecular length based on MM+ molecular simulations, corresponding approximately to the expected diameter of cylindrical fibers consisting of hydrophobically collapsed β-sheets.
TEM images were obtained using solutions of either 10 μM or 0.5 mM peptide amphiphile concentration, as well as 150 mM NaCl and 2.2 mM CaCl2 in Milli-Q water. The solutions were first heated at 80° C. for 30 minutes in a water bath and then gradually cooled to room temperature. This was followed by pH adjustment using either HCl or NaOH. 5 μL of this solution was pipetted onto a Carbon Formvar grid (Electron Microscopy Sciences) and allowed to sit for 2 minutes before being wicked dry using filter paper. For the 10 μM experiments that were performed to determine the time dependence of nanofiber formation, solutions were dropcast onto the grid within three minutes of pH adjustment. […]

Molecule | pKa [2] | further results
Palmitoyl-VAAAEEEEK(DO3A:Gd)-NH2 (also: Gd complex of DO3A) [PA 6] |  | nanofiber to micelle transition pH, lower than PA 5 by [1]: 0.4 units
CCCCCCCCCCCCCCCC(=O)N[C@H](C(=O)N[C@@H](C)C(=O)N[C@@H](C)C(=O)N[C@@H](C)C(=O)N[C@@H](CCC(=O)O)C(=O)N[C@@H](CCC(=O)O)C(=O)N[C@@H](CCC(=O)O)C(=O)N[C@@H](CCC(=O)O)C(N)=O)[C@@H](C)CC [PA 1] (Palmitoyl-IAAAEEEE-NH2) | 4.66 ± 0.1 | 
Palmitoyl-IAAAEEEEK(DO3A:Gd)-NH2 (also: Gd complex of DO3A) [PA 5] |  | diameter of nanofibers ([3]; pH 4): 11.9±1.6 nm; diameter of spherical micelles ([3]; pH 10): 10.0±1.2 nm

Further lines, with some results ahead:

pKa [2] | Molecule | further results
4.86 ± 0.11 | CCCCCCCCCCCCCCCC(=O)N[C@H](C(=O)N[C@@H](C)C(=O)N[C@@H](C)C(=O)N[C@@H](C)C(=O)N[C@@H](CCC(=O)O)C(=O)N[C@@H](CCC(=O)O)C(=O)N[C@@H](CCC(=O)O)C(=O)N[C@@H](CCC(=O)O)C(N)=O)C(C)C [PA 3] (Palmitoyl-VAAAEEEE-NH2) | 
4.94 ± 0.09 | CCCCCCCCCCCCCCCC(=O)N[C@@H](Cc1ccccc1)C(=O)N[C@@H](C)C(=O)N[C@@H](C)C(=O)N[C@@H](C)C(=O)N[C@@H](CCC(=O)O)C(=O)N[C@@H](CCC(=O)O)C(=O)N[C@@H](CCC(=O)O)C(=O)N[C@@H](CCC(=O)O)C(N)=O [PA 2] (Palmitoyl-FAAAEEEE-NH2) | 
4.7 ± 0.1 | CCCCCCCCCCCCCCCC(=O)N[C@@H](Cc1ccc(O)cc1)C(=O)N[C@@H](C)C(=O)N[C@@H](C)C(=O)N[C@@H](C)C(=O)N[C@@H](CCC(=O)O)C(=O)N[C@@H](CCC(=O)O)C(=O)N[C@@H](CCC(=O)O)C(=O)N[C@@H](CCC(=O)O)C(N)=O [PA 4] (Palmitoyl-YAAAEEEE-NH2) | 
